Source: patent publication US20230096528A1, “Pharmaceutical Composition for Treatment or Prevention of Multiple Inflammatory disorders” (priority 2019, published 2023)

Experiments:
[1] = test system: leptin-deficient (ob/ob) mice; assay: Body weight and biomarker study in leptin-deficient (ob/ob) mice, 56 days (Example 10); assay type: in vivo; details: 50 mg/kg gavage BID
Method: Therefore, ob/ob mice are a predictive in vivo model for these indications. This example provides results of a study of DA plus another compound (CQL) on body weight in leptin-deficient (ob/ob) mice. Vehicle group (N=14) were treated with distilled water by gavage BID, and DA (N=14) at a dose of 50 mg/kg by gavage BID. The study period was for 56 days+2-3 days testing period afterward. Body weight change measured 3× per week, food intake was measure twice per week, metabolic biomarkers (blood glucose, blood insulin, blood HbA1c, HDL, LDL, triglyceride and bile acid) were measured at beginning and end of study. Cytokine analysis was measured at end on Day 56.

[2] = test system: DSS-induced colitis in mice; assay: Dextran sulfate sodium (DSS)-induced colitis in mice (Example 3); assay type: in vivo
Text: This example provides the results of an in vivo study in a dextran sulfate sodium (DSS)-induced colitis in mice model. Inflammatory bowel diseases (IBD), mainly comprising ulcerative colitis and Crohn's Disease, are complex and multifactorial diseases with unknown etiology. To study human IBD mechanistically, a number of murine models of colitis have been developed. These models are tools to decipher underlying mechanisms of IBD pathogenesis as well as to evaluate potential therapeutics. […] Moreover, many existing IBD-approved drugs have been studied in this model to allow a comparison of new potential drug compounds as compared with existing drugs with approved IBD indications. […] mice were divided into 5 groups of 3-10 mice, provided with standard mouse chow diet ad libitum, and housed up to 5 per cage. Dexamethasone 21-phosphate disodium salt (DMS; Alfa Aesar Catalog #J64083-1G, Lot R02F035) (was used as a positive control. Hemoccult kits were obtained from Beckman (Hemoccult SENSA kit). Dextran sodium sulfate (DSS) reagent grade (MPI Catalog #160110, Lot #6046H, MW 36,000-50,000, CAS 9011-18-1) was supplemented in the water of certain groups to induced IBD-like symptoms. On day −3 treatment began prior to DSS delivery. On day 1 all mice were pre-weighed and given fresh 4-5% DSS in water every day for 5 days and water is then given for the remainder of the study to elicit disease. An additional control group was given water (no DSS) for the duration of the study (10 days). Body weight was measured daily, fecal blood status (hemoccult) was measured 3× per week, fecal consistency 3× per week and general health determined daily. Mice were sacrificed on day 10 and serum obtained for cytokine analysis and colon length and weight determined. There were two control groups of water only and DSS without drug treatment. There were two treatment groups at 69.3 mg/kg (n=10) bid and 23.1 mg/kg bid (n=10).

diet-induced (DIO) mice = assay: Body weight study in diet-induced (DIO) mice (Example 9); assay type: in vivo, C57BL/6NTac mice; details: DA 92.4 mg/kg gavage BID, vs vehicle
[3] = test system: mouse model of acute lung injury; assay: Second modified acute lung injury plus hyperthermia study (Example 8); details: for Tolerability of three days of repeat dosing: mouse, in vivo
Method: Lung lavage fluid was measured and cytokine analysis. Statistics was one-way ANOVA followed by Tukey's multiple comparison post hoc test for data with normal distribution; Kruskal-Wallis test followed by Dunn's multiple comparison post hoc test for data with skewed distribution; and the ROUT method for identifying outliers. Control or drug administered for 3 days, then LPS at 50 μL of 1 mg/ml delivered intratracheally with a Penn Century needle where a core temperature of 39 C at 24 hours post LPS and then sacrifice to measure lung lavage fluid protein concentration and serum cytokine levels.
The same procedure was used as in Example 7. Starting three days before the induction of lung injury, groups of six CD-1 mice each were treated prophylactically with vehicle or 92.4 mg/kg denatonium acetate (DA) (administered by twice-daily (BID) oral gavage (PO)) or with 3 mg/kg DA (administered by once-daily (QD) intraperitoneal (IP) injection). On Day 0, lung injury was induced by intratracheal instillation with 50 μL of 1 mg/mL bacterial lipopolysaccharide (LPS), and hyperthermia was induced by placing the animals in a 39° C. incubator. On Day 1 (i.e., 24 hours after induction), animals were euthanized and bronchoalveolar lavage fluid (BALF) was collected. The BALF specimens were assessed for cytokine concentrations (using a multiplex bead-based assay), and protein levels, and neutrophil counts (by fluorescence-activated cell sorting (FACS)). Additionally, lungs were collected, fixed, stained with Masson's trichrome, and assessed histologically.

[4] = day 56, no significant difference
[5] = high-dose DA, no significant difference
[6] = oral 92.4 mg/kg BID, vs vehicle

## CC(=O)[O-].CC[N+](CC)(CC(=O)Nc1c(C)cccc1C)Cc1ccccc1 [DA, denatonium acetate]
[1]; 56 days
  Body weight: no significant effect
  Daily food consumption: no significant effect
  Serum HBA1c levels: no significant effect
  Serum HDL levels: no significant effects
  Serum glucose levels: significantly decreased
  Serum insulin levels: no significant effect
[1]; 56 days, vs vehicle
  Serum LDL levels: significantly lowered
  Serum bile acids levels: significantly increased
  Serum triglyceride levels: significantly lowered
[1]; [4]
  IL-1β level decreased by, compared to vehicle group: 19.1%
  IL-6 level decreased by, compared to vehicle group: 61.4%
  MCP-1 level decreased by, compared to vehicle group: 20.9%
  RANTES level decreased by, compared to vehicle group: 1.7%
[2]; 69.3 mg/kg BID, vs vehicle
  Body weight at day 10: significant effect against DSS-induced body weight loss
[2]; DA treatment
  Combined fecal score during the study period: significant main effect
  Fecal consistency score during the study period: significant main effect
  Fecal occult blood scores during the study period: significant main effect
[2]; [5]
  Colon length at day 10: could counteract DSS-induced decrease
  Colon weight at day 10: could counteract DSS-induced decrease
[2]; high-dose DA, no significant effect
  Spleen weight at day 10: trend to counteract DSS-induced spleen weight loss
diet-induced (DIO) mice
  Daily food intake at Day 14: significantly reduced
[3]; 92.4 mg/kg PO group, within 24 h after LPS instillation, also one vehicle-dosed, not attributed to test article
  Mice found dead on Day 1: one
[3]; IP 3 mg/kg QD
  BALF neutrophil counts (by FACS assay): nominal decreases
  BALF protein concentrations: nominal (but nonsignificant) changes
  Number of 32 tested BALF cytokines significantly decreased compared to vehicle: 10
  Severity of lung pathology (by histological scoring): nominal decreases
[3]; IP 3 mg/kg QD, vs vehicle
  G-CSF concentration in BALF: significant decreases
  IL2 concentration in BALF: significant decreases
  IL-3 concentration in BALF: significant decreases
  IL-4 concentration in BALF: significant decreases
  IL-13 concentration in BALF: significant decreases
  IP-10 concentration in BALF: significant decreases
  M-CSF concentration in BALF: significant decreases
  MCP-1 concentration in BALF: significant decreases
  MIG concentration in BALF: significant decreases
  eotaxin concentration in BALF: significant decreases
[3]; ip, 3 mg/kg
  Tolerability of three days of repeat dosing: well-tolerated
[3]; po, 92.4 mg/kg
  Tolerability of three days of repeat dosing: well-tolerated
[3]; oral 92.4 mg/kg BID
  BALF neutrophil counts (by FACS assay): nominal decreases
  BALF protein concentrations: nominal (but nonsignificant) changes
  Number of 32 tested BALF cytokines significantly decreased compared to vehicle: 7
  Severity of lung pathology (by histological scoring): nominal decreases
[3]; [6]
  IL-2 concentration in BALF: significant decreases
  IL-3 concentration in BALF: significant decreases
  IL-10 concentration in BALF: significant decreases
  IL-13 concentration in BALF: significant decreases
  MCSF concentration in BALF: significant decreases
  MIG concentration in BALF: significant decreases
